Data taken from patent publication US20090221603A1, “HETEROCYCLIC AMIDE DERIVATIVES AS CALCIUM CHANNEL BLOCKERS” (priority 2005, published 2009).
Like-named read-outs stand apart in the source and are kept apart here.

Experiments:
[1] = biological target: T1, rat brain N-type calcium channel subunits (α1B+α2δ+β1b cDNA subunits) (Rattus norvegicus, UniProt Q02294); assay: N-type calcium channel block, whole cell patch clamp in HEK 293 cells; assay type: cell-based; conditions: holding potential −80 mV to +10 mV
T1 construct: expressed in transfected cells; host or cells: HEK 293 (stably, alternatively transiently, transfected)
Protocol: A. Transformation of HEK Cells: • N-type calcium channel blocking activity was assayed in human embryonic kidney cells, HEK 293, stably transfected with the rat brain N-type calcium channel subunits (α1B+α2δ+β1b cDNA subunits). Alternatively, N-type calcium channels (α1B+α2δ+β1b cDNA subunits), L-type channels (α1C+α2δ+β1b cDNA subunits) and P/Q-type channels (α1A+α2δ+β1b cDNA subunits) were transiently expressed in HEK 293 cells. Briefly, cells were cultured in Dulbecco's modified eagle medium (DMEM) supplemented with 10% fetal bovine serum, 200 U/ml penicillin and 0.2 mg/ml streptomycin at 37° C. with 5% CO2. At 85% confluency cells were split with 0.25% trypsin/1 mM EDTA and plated at 10% confluency on glass coverslips. At 12 hours the medium was replaced and the cells transiently transfected using a standard calcium phosphate protocol and the appropriate calcium channel cDNA's. Fresh DMEM was supplied and the cells transferred to 28° C./5% CO2. Cells were incubated for 1 to 2 days prior to whole cell recording.
B. Measurement of Inhibition
Whole cell patch clamp experiments were performed using an Axopatch 200B amplifier (Axon Instruments, Burlingame, Calif.) linked to a personal computer equipped with pCLAMP software. The external and internal recording solutions contained, respectively, 5 mM BaCl2, 10 mM MgCl2, 10 mM HEPES, 40 mM TEACl, 10 mM glucose, 87.5 mM CsCl (pH 7.2) and 108 mM CsMS, 4 mM MgCl2, 9 mM EGTA, 9 mM HEPES (pH 7.2). Currents were typically elicited from a holding potential of −80 mV to +10 mV using Clampex software (Axon Instruments). Typically, currents were first elicited with low frequency stimulation (0.067 Hz) and allowed to stabilize prior to application of the compounds. The compounds were then applied during the low frequency pulse trains for two to three minutes to assess tonic block, and subsequently the pulse frequency was increased to 0.2 Hz to assess frequency dependent block. Data were analyzed using Clampfit (Axon Instruments) and SigmaPlot 4.0 (Jandel Scientific).

[2] = biological target: T2, human α1G T-type channels (Homo sapiens, UniProt O43497); assay: T-type calcium channel block, patch clamp in HEK cell lines; assay type: cell-based; conditions: mainly non-inactivated protocol; HEK cells expressing human α1G; read-out: IC50 @ −80 mV
T2 construct: expressed in transfected cells

[3] = low frequency stimulation 0.067 Hz (tonic block), read-out: IC50 @ 0.067 Hz
[4] = pulse frequency 0.2 Hz (frequency dependent block), read-out: IC50 @ 0.2 Hz

T1 sequence (Q02294 whole entry): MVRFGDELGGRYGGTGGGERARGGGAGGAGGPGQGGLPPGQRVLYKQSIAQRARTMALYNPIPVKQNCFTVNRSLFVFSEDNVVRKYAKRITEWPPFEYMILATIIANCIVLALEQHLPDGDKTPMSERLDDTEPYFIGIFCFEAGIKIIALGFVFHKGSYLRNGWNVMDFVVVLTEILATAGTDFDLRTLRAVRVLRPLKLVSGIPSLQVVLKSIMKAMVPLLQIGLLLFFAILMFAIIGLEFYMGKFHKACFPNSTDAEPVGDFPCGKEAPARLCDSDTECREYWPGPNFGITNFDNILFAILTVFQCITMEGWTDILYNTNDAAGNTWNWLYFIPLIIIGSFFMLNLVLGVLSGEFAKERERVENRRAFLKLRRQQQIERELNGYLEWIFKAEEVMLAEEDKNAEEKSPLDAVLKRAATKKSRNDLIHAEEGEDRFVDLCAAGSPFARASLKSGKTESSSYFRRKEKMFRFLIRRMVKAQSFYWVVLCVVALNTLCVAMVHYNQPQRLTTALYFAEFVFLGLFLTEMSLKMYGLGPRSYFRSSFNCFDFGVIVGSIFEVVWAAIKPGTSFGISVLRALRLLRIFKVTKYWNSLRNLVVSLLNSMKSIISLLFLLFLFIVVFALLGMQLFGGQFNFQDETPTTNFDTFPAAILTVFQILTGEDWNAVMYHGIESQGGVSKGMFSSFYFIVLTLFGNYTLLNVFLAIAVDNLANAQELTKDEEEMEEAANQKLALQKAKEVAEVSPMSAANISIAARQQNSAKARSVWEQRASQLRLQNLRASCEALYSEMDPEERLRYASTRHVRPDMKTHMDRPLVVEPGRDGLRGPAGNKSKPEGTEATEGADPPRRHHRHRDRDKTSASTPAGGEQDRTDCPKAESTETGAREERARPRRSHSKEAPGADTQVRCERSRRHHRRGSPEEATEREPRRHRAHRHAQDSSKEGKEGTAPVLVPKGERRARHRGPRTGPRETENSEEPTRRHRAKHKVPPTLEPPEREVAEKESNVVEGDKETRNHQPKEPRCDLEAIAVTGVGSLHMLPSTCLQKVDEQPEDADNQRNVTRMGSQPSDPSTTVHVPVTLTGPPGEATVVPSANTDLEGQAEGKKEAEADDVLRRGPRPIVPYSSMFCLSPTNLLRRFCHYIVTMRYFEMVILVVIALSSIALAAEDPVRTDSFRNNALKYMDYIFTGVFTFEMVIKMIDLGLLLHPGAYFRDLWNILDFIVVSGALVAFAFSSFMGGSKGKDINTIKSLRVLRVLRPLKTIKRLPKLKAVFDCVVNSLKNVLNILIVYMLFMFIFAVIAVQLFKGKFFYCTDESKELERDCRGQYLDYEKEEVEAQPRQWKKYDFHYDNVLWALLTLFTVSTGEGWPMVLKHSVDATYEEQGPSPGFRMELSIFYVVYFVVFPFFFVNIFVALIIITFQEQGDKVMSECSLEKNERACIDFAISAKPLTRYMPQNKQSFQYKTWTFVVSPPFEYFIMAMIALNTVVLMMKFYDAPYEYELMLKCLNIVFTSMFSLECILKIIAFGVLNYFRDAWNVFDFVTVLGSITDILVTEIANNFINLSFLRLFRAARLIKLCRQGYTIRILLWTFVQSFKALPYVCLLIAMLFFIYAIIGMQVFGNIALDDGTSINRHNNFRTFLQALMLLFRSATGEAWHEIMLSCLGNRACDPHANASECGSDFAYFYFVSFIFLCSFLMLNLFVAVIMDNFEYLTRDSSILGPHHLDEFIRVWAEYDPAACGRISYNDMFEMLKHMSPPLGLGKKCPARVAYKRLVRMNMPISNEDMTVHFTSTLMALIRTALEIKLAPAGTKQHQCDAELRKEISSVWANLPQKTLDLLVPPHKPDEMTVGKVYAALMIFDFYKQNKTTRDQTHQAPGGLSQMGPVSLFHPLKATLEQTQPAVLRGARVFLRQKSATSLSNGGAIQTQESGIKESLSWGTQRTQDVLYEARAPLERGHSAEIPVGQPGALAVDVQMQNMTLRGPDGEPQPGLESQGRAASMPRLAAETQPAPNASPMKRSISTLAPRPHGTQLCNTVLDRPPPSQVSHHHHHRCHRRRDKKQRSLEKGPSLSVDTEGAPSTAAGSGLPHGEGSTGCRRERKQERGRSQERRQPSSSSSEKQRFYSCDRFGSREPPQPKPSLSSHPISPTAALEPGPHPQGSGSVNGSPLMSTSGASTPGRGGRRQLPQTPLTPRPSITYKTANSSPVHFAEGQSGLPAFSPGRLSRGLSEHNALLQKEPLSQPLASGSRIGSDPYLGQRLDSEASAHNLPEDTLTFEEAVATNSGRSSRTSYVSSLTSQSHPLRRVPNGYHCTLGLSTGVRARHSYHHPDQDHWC
T1 sequence (P54290 25-944 partner limits assumed): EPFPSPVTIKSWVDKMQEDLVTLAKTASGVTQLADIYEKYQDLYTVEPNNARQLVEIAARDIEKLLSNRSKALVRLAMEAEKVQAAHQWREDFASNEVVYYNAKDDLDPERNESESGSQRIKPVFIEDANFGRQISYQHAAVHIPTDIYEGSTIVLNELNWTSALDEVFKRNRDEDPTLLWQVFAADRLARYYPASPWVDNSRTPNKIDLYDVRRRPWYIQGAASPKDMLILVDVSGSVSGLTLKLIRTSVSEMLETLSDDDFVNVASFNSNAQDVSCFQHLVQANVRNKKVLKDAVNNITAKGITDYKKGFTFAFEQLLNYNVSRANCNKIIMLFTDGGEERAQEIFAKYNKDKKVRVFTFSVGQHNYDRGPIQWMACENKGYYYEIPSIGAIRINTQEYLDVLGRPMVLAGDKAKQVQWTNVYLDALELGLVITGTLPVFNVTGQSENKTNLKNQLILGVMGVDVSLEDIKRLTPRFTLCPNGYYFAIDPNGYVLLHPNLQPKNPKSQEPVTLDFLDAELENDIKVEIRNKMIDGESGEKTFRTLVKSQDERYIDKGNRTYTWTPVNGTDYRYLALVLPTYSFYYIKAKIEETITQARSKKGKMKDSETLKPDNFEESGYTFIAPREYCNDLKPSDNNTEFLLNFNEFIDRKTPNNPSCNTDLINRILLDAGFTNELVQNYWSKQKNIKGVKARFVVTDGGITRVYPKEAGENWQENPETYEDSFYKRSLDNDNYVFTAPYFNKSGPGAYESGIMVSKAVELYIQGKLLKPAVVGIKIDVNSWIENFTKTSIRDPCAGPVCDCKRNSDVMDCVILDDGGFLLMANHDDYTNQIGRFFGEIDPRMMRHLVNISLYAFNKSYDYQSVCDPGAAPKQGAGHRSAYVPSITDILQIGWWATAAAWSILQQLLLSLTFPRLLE
T1 sequence (P54290 945-1091 partner limits assumed): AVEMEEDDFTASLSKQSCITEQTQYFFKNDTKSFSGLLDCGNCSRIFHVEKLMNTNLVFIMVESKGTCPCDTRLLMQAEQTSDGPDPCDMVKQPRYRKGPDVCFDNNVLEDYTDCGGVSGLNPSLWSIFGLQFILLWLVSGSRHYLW
T1 sequence (P54283 whole entry partner): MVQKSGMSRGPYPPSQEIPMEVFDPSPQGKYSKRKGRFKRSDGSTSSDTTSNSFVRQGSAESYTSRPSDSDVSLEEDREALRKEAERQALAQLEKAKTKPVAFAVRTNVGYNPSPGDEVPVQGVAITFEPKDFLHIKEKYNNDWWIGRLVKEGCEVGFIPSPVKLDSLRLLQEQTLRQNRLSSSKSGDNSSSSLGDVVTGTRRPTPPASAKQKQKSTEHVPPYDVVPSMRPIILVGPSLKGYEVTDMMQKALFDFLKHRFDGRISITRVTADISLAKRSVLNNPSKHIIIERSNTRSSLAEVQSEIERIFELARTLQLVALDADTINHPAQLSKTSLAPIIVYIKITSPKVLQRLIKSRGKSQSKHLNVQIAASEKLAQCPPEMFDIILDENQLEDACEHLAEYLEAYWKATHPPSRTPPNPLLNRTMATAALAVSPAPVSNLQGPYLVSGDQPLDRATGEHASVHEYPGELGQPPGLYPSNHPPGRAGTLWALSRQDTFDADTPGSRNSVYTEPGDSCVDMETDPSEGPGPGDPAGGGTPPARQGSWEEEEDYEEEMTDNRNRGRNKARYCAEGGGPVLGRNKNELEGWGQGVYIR

Structure (SMILES) | IC50 [1, 3] [µM] | IC50 [1, 4] [µM] | IC50 [2] [µM]
COCC1CN(C(=O)CNC(c2ccccc2)c2ccccc2)CCN1C(c1ccccc1)c1ccccc1 (stereo not shown) [Compound 53, 2-benzhydrylamino-1-(4-benzhydryl-3-methoxymethylpiperazin-1-yl)ethanone] | 0.25 | 0.15 | 0.49
O=C(CSC(c1ccccc1)c1ccccc1)N1CCN(C(c2ccc(F)cc2)c2ccc(F)cc2)CC1 [Compound 47, 2-(benzhydrylthio)-1-(4-(bis(4-fluorophenyl)methyl)piperazin-1-yl)ethanone] | 4.92 | 3.23 | 
CN(CC(=O)N1CCN(C(c2ccccc2)c2ccc(Cl)cc2)CC1)C(c1ccccc1)c1ccccc1 (stereo not shown) [Compound 3, 2-benzhydryl(methyl)amino-1-(4-((4-chlorophenyl)(phenyl)methyl)piperazin-1-yl)ethanone] | 2.45 | 0.85 | 
CN1CCC(C(=O)N2CCN(C(=O)CNC(c3ccccc3)c3ccccc3)CC2)CC1 [Compound 10, 2-benzhydrylamino-1-(4-(1-methylpiperidine-4-carbonyl)piperazin-1-yl)ethanone] | > 4.97 | > 2.64 | 
O=C(COC(c1ccccc1)c1ccccc1)N1CCN(C(c2ccccc2)c2ccccc2)CC1 [Compound 30, 2-(benzhydryloxy)-1-(4-benzhydrylpiperazin-1-yl)ethanone] | 0.49 | 0.27 | 0.59
CC1CN(CC2CCOCC2)CC(C)N1C(=O)C[S+]([O-])C(c1ccccc1)c1ccccc1 (stereo not shown) [Compound 34, 2-(benzhydrylsulfinyl)-1-(2,6-dimethyl-4-((tetrahydro-2H-pyran-4-yl)methyl)piperazin-1-yl)ethanone] | > 6.6 | > 4.7 | 
CN1CCC(C(c2ccccc2)N2CCN(C(=O)CN(C)C(c3ccccc3)c3ccccc3)CC2)CC1 (stereo not shown) [Compound 14, 2-benzhydryl(methyl)amino-1-(4-((1-methylpiperidin-4-yl)(phenyl)methyl)piperazin-1-yl)ethanone] | 0.55 | 0.44 | 
O=C(CNc1cc(F)cc(F)c1)N1CCN(C(c2ccccc2)c2ccccc2)CC1 [Compound 21, 1-(4-benzhydrylpiperazin-1-yl)-2-(3,5-difluorophenylamino)ethanone] | 1.4 | 0.7 | 
O=C(CNC(c1ccccc1)c1ccccc1)N1CCN(C(c2ccccc2)c2ccccc2)CC1 [Compound 1, 2-benzhydrylamino-1-(4-benzhydrylpiperazin-1-yl)ethanone] | 0.14 | 0.08 | 0.08
COc1cc(NCC(=O)N2CCN(C(c3ccccc3)c3ccccc3)CC2)cc(OC)c1OC [Compound 25, 1-(4-benzhydrylpiperazin-1-yl)-2-(3,4,5-trimethoxyphenylamino) ethanone] | 2.3 | 1.5 | 
CN(CC(=O)N1CCN(C(c2ccccc2)c2cccc(C(F)(F)F)c2)CC1)C(c1ccccc1)c1ccccc1 (stereo not shown) [Compound 7] | 1.46 | 0.67 | 
COCC1CN(C(=O)COC(c2ccccc2)c2ccccc2)CCN1C(c1ccccc1)c1ccccc1 (stereo not shown) [Compound 54, 2-(benzhydryloxy)-1-(4-benzhydryl-3-methoxymethylpiperazin-1-yl)ethanone] | 0.33 | 0.21 | 
CN(CC(=O)N1CCN(C(c2ccccc2)c2ccccc2Cl)CC1)C(c1ccccc1)c1ccccc1 (stereo not shown) [Compound 5, 2-benzhydryl(methyl)amino-1-(4-((2-chlorophenyl)(phenyl)methyl)piperazin-1-yl)ethanone] | > 4.67 | > 2.94 | 
CC1CN(CC2CCOCC2)CC(C)N1C(=O)COC(c1ccccc1)c1ccccc1 (stereo not shown) [Compound 32, 2-(benzhydryloxy)-1-(2,6-dimethyl-4-((tetrahydro-2H-pyran-4-yl)methyl)piperazin-1-yl)ethanone] | 1 | 0.64 | 
O=C(C[S+]([O-])C(c1ccccc1)c1ccccc1)N1CCN(C(c2ccccc2)c2ccccc2)CC1 (stereo not shown) [Compound 45, 1-(4-benzhydrylpiperazin-1-yl)-2-(benzhydrylsulfinyl)ethanone] | 0.29 | 0.2 | 
O=C(COC(c1ccccc1)c1ccccc1)N1CCN(C(c2ccccc2)c2ccccc2)C(CO)C1 (stereo not shown) [Compound 50, 2-(benzhydryloxy)-1-(4-benzhydryl-3-hydroxymethylpiperazin-1-yl)ethanone] | 0.4 | 0.23 | 

Structure (SMILES) | IC50 [1, 3] [µM] | IC50 [1, 4] [µM] | IC50 [2] [µM]
O=C(CNc1ccccc1)N1CCN(C(c2ccccc2)c2ccccc2)CC1 [Compound 16] | 4.3 | 0.8 | 
CN1CCC(CN2CCN(C(=O)C[S+]([O-])C(c3ccccc3)c3ccccc3)CC2)CC1 (stereo not shown) [Compound 43, 2-(benzhydrylsulfinyl)-1-(4-((1-methylpiperidin-4-yl)methyl)piperazin-1-yl)ethanone] | 4.26 | 1.34 | 
CN1CCC(C(=O)N2CCN(C(=O)CN(C)C(c3ccccc3)c3ccccc3)CC2)CC1 [Compound 11, 2-benzhydryl(methyl)amino-1-(4-(1-methylpiperidine-4-carbonyl)piperazin-1-yl)ethanone] | > 11.8 | 7.92 | 
CN1CCC(CN2CCN(C(=O)COC(c3ccccc3)c3ccccc3)CC2)CC1 [Compound 41, 2-(benzhydryloxy)-1-(4-((1-methylpiperidin-4-yl)methyl)piperazin-1-yl)ethanone] | > 4.8 | > 3.2 | 
CN(CC(=O)N1CCN(C(c2ccccc2)c2cccc(Cl)c2)CC1)C(c1ccccc1)c1ccccc1 (stereo not shown) [Compound 4, 2-benzhydryl(methyl)amino-1-(4-((3-chlorophenyl)(phenyl)methyl)piperazin-1-yl)ethanone] | 1.24 | 0.84 | 
O=C(C[S+]([O-])C(c1ccccc1)c1ccccc1)N1CCN(C(c2ccccc2)c2ccccc2)C(CO)C1 (stereo not shown) [Compound 52, 1-(4-benzhydryl-3-hydroxymethylpiperazin-1-yl)-2-(benzhydrylsulfinyl)ethanone] | 1.23 | 0.97 | 
CN1CCC(CN2CCN(C(=O)CN(C)C(c3ccccc3)c3ccccc3)CC2)CC1 [Compound 12] | 7.4 | 2.07 | 
O=C(CNc1cccc(Cl)c1)N1CCN(C(c2ccccc2)c2ccccc2)CC1 [Compound 18, 1-(4-benzhydrylpiperazin-1-yl)-2-(3-chlorophenylamino)ethanone] | 1.29 | 1.03 | 
O=C(CSC(c1ccccc1)c1ccccc1)N1CCN(C(c2ccccc2)c2ccccc2)CC1 [Compound 44, 1-(4-benzhydrylpiperazin-1-yl)-2-(benzhydrylthio)ethanone] | 0.6 | 0.27 | 
COCC1CN(C(=O)C[S+]([O-])C(c2ccccc2)c2ccccc2)CCN1C(c1ccccc1)c1ccccc1 (stereo not shown) [Compound 56, 1-(4-benzhydryl-3-methoxymethylpiperazin-1-yl)-2-(benzhydrylsulfinyl)ethanone] | 0.18 | 0.13 | 
O=C(CNc1ccc(Cl)cc1)N1CCN(C(c2ccccc2)c2ccccc2)CC1 [Compound 17, 1-(4-benzhydrylpiperazin-1-yl)-2-(4-chlorophenylamino)ethanone] | > 7.6 | > 4.6 | 
Cc1cc(CN2CCN(C(=O)COC(c3ccccc3)c3ccccc3)CC2)cc(Cl)n1 [Compound 40, 2-(benzhydryloxy)-1-(4-((2-chloro-6-methylpyridin-4-yl)methyl)piperazin-1-yl)ethanone] | 1.2 | 0.74 | 
CN1CCC(CN2CCN(C(=O)CNC(c3ccccc3)c3ccccc3)CC2)CC1 [Compound 9] | 4 | 2.5 | 
O=C(CNC(c1ccccc1)c1ccccc1)N1CCN(CC2CCOCC2)CC1 [Compound 38, 2-(benzhydrylamino)-1-(4-((tetrahydro-2H-pyran-4-yl)methyl)piperazin-1-yl)ethanone] | 9.53 | 4.91 | 
O=C(CNc1cc(Cl)cc(Cl)c1)N1CCN(C(c2ccccc2)c2ccccc2)CC1 [Compound 22, 1-(4-benzhydrylpiperazin-1-yl)-2-(3,5-dichlorophenylamino)ethanone] | 2.4 | 0.98 | 
O=C(COC(c1ccccc1)c1ccccc1)N1CCN(CC2CCOCC2)CC1 [Compound 35, 2-(benzhydryloxy)-1-(4-((tetrahydro-2H-pyran-4-yl)methyl)piperazin-1-yl)ethanone] | 8.3 | 1.3 | 
